PMC12016938, “A small molecule PKCε inhibitor reduces hyperalgesia induced by paclitaxel or opioid withdrawal” (JCI Insight, 2025)
Values joined by “and” are separate entries in the source; they are usually repeats but may differ in a detail not shown here. Identical values can stand only once. Like-named read-outs stand apart in the source and are kept apart here.

How the values were obtained:
PKCη = target: T1, PKCη (Homo sapiens, UniProt P24723); experiment: scanMax kinome panel, PKCη; assay type: binding; conditions: 200 nM CP612; read-out: scanMax % of control, PKCη
T1 construct: purchased Eurofins-DiscoverX
T1 sequence (P24723 whole entry): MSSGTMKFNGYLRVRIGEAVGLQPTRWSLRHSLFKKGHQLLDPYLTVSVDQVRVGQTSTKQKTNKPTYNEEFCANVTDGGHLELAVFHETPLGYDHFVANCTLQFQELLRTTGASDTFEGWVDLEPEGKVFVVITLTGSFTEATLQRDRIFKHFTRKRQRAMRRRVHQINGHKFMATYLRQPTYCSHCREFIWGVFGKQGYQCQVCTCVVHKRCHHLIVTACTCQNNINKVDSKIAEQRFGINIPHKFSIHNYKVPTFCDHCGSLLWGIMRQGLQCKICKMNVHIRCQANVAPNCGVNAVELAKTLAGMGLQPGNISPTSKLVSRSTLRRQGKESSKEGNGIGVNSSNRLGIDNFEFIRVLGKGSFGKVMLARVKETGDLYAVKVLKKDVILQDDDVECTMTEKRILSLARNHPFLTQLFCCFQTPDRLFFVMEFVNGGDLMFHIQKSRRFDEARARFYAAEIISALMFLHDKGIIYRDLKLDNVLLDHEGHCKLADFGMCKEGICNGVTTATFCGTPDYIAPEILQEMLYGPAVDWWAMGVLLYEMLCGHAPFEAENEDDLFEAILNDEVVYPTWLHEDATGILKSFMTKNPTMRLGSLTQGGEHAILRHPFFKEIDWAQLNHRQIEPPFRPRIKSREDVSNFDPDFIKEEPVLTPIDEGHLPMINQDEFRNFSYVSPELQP
Description: CP612 was screened for kinome specificity at 200 nM against 468 kinases using the scanMax assay panel from Eurofins-DiscoverX. CP612 inhibited 10 other WT kinases besides PKCε, all to < 10% of control: CLK1 (CDC Like Kinase 1), CLK4, PKN1 (Protein kinase N1), PKN2, PKCδ, PKCη, PKCθ, PRKG2 (Protein Kinase CGMP-Dependent 2), ROCK1, and ROCK2.

[1] = Pharmacokinetic studies in rats (plasma and brain); assay type: in vivo; conditions: for Kp at 2 h / Kp at 24 h / concentration at 2 h / concentration at 24 h / Plasma concentration / Brain/Plasma / Plasma 2h/24h: rat; for concentration at 2 h / concentration at 24 h: read-out: Brain concentration
Description: Because binding to plasma protein was approximately 90%, we predicted that the free concentration at each time point was 10 times lower than the measured plasma concentration.
Pharmacokinetic studies in rats. Pharmacokinetics studies were contracted to the Drug Metabolism and Pharmacokinetics Core at Scripps Research. CP612 was dissolved at in 10% Tween-80/90% water and administered at 40 mg/kg/5 mL. Six rats were injected i.v. and 6 were injected i.p. Three rats were used to collect a full plasma time course from 5 minutes to 24 hours after dose. Then, brains were collected from these rats at 24 hours and from 3 additional rats at 2 hours after administration of compound. One rat receiving i.p. administration of CP612 was excluded as it had low/nondetectable levels indicating missed i.p. injection in that rat. Plasma samples were diluted 10-fold in blank plasma. Each brain was disrupted in potassium phosphate buffer (pH 7.4; 9 μL per 1mg tissue) on ice using brief sonication pulses. CP612 was detected with an API Triple Quad 5500 LC-MS/MS (SCIEX) using an MRM(+) method: CP612 (463/282, m/z) with carbamazepine (238/195.1, m/z) as an internal standard.

[2] = i.p. 40 mg/kg, 2h, individual rat, 40 mg/kg
[3] = i.p. 40 mg/kg, 24h, individual rat, 40 mg/kg
[4] = i.v. 40 mg/kg, 2h, individual rat, 40 mg/kg

Structure (SMILES): N[C@H](CNC(=O)C1(c2ccc(Cl)cc2)CCCC1)c1ccc(C(=O)Nc2ccncc2)cc1 [CP612]
- remaining binding at 0.2 µM (PKCη): < 10%
- Brain level between 2 hours and 24 hours ([1]; 40 mg/kg i.p.): remained stable
- Decrease of plasma level between 2 hours and 24 hours ([1]; 40 mg/kg i.p.): about 30 fold
- Decrease of brain level between 2 hours and 24 hours ([1]; 40 mg/kg i.v.): less than 2 fold
- Decrease of plasma level between 2 hours and 24 hours ([1]; 40 mg/kg i.v.): about 70 fold
- Predicted free concentration relative to measured plasma concentration ([1]; from approx. 90% plasma protein binding): 10 times lower
- Kp at 2 h ([1]; brain, ip, 40 mg/kg, 40 mg/kg i.p., 2 hours, read-out: Brain/plasma concentration ratio): 0.03 ± 0.009
- Kp at 24 h ([1]; brain, ip, 40 mg/kg, 40 mg/kg i.p., 24 hours, read-out: Brain/plasma concentration ratio): 1.18 ± 0.42
- concentration at 2 h ([1]; brain, ip, 40 mg/kg, i.p. 40 mg/kg, 2h, mean all rats): 494 nM
- Kp at 2 h ([1]; brain, ip, 40 mg/kg, i.p. 40 mg/kg, 2h, mean all rats, read-out: Brain/Plasma): 0.0312
- concentration at 2 h ([1]; brain, ip, 40 mg/kg, i.p. 40 mg/kg, 2h, mean of Plasma 2h, Brain 2h rats): 494 nM
- Kp at 2 h ([1]; brain, ip, 40 mg/kg, i.p. 40 mg/kg, 2h, mean of Plasma 2h, Brain 2h rats, read-out: Brain/Plasma): 0.0312
- concentration at 24 h ([1]; brain, ip, 40 mg/kg, i.p. 40 mg/kg, 24h, individual rat): 609 nM
- concentration at 24 h ([1]; brain, ip, 40 mg/kg, i.p. 40 mg/kg, 24h, mean all rats): 540 nM
- Kp at 24 h ([1]; brain, ip, 40 mg/kg, i.p. 40 mg/kg, 24h, mean all rats, read-out: Brain/Plasma): 1.18
- concentration at 24 h ([1]; brain, ip, 40 mg/kg, i.p. 40 mg/kg, 24h, mean of RM Plasma + Brain 24h rats): 540 nM
- Kp at 24 h ([1]; brain, ip, 40 mg/kg, i.p. 40 mg/kg, 24h, mean of RM Plasma + Brain 24h rats, read-out: Brain/Plasma): 1.18
- Kp at 2 h ([1]; brain, iv, 40 mg/kg, 40 mg/kg i.v., 2 hours, read-out: Brain/plasma concentration ratio): 0.16 ± 0.03
- Kp at 24 h ([1]; brain, iv, 40 mg/kg, 40 mg/kg i.v., 24 hours, read-out: Brain/plasma concentration ratio): 9.17 ± 3.19
- concentration at 2 h ([1]; brain, iv, 40 mg/kg, i.v. 40 mg/kg, 2h, individual rat): 2290 nM
- Kp at 2 h ([1]; brain, iv, 40 mg/kg, i.v. 40 mg/kg, 2h, individual rat, read-out: Brain/Plasma): 0.15
- concentration at 2 h ([1]; brain, iv, 40 mg/kg, i.v. 40 mg/kg, 2h, mean all rats): 2630 nM
- Kp at 2 h ([1]; brain, iv, 40 mg/kg, i.v. 40 mg/kg, 2h, mean all rats, read-out: Brain/Plasma): 0.163
- concentration at 2 h ([1]; brain, iv, 40 mg/kg, i.v. 40 mg/kg, 2h, mean of Plasma 2h, Brain 2h rats): 2630 nM
- Kp at 2 h ([1]; brain, iv, 40 mg/kg, i.v. 40 mg/kg, 2h, mean of Plasma 2h, Brain 2h rats, read-out: Brain/Plasma): 0.163
- concentration at 24 h ([1]; brain, iv, 40 mg/kg, i.v. 40 mg/kg, 24h, mean all rats): 1460 nM
- Kp at 24 h ([1]; brain, iv, 40 mg/kg, i.v. 40 mg/kg, 24h, mean all rats, read-out: Brain/Plasma): 9.17
- concentration at 24 h ([1]; brain, iv, 40 mg/kg, i.v. 40 mg/kg, 24h, mean of RM Plasma + Brain 24h rats): 1460 nM
- Kp at 24 h ([1]; brain, iv, 40 mg/kg, i.v. 40 mg/kg, 24h, mean of RM Plasma + Brain 24h rats, read-out: Brain/Plasma): 9.17
- Plasma concentration ([1]; i.p. 40 mg/kg, 15min, individual rat, 40 mg/kg): 21815.2 nM
- Plasma concentration ([1]; i.p. 40 mg/kg, 30min, individual rat, 40 mg/kg): 20540.8 nM
- Brain/Plasma [1, 2]: 0.02 and 0.0252 and 0.05
- Plasma concentration [1, 2]: 15033 nM and 14212.3 nM and 13650.7 nM and 17581.8 nM
- concentration at 2 h [1, 2]: 280.8 nM and 343.4 nM and 857.5 nM
- Plasma concentration ([1]; i.p. 40 mg/kg, 4h, individual rat, 40 mg/kg): 6479.8 nM
- Plasma concentration ([1]; i.p. 40 mg/kg, 6h, individual rat, 40 mg/kg): 1874.8 nM
- Plasma concentration ([1]; i.p. 40 mg/kg, 8h, individual rat, 40 mg/kg): 1974.2 nM
- Brain/Plasma [1, 3]: 1.60 and 0.76
- Plasma concentration [1, 3]: 615.6 nM
- concentration at 2 h [1, 3]: 470.9 nM
- Plasma 2h/24h ([1]; i.p. 40 mg/kg, individual rat, 40 mg/kg): 37.8409 and 24.4211
- Plasma 2h/24h ([1]; i.p. 40 mg/kg, mean all rats): 31.1310
- Plasma 2h/24h ([1]; i.p. 40 mg/kg, mean of RM Plasma + Brain 24h rats): 31.1310
- Plasma concentration ([1]; i.v. 40 mg/kg, 5min, individual rat, 40 mg/kg): 73005.3 nM and 87692.8 nM
- Plasma concentration ([1]; i.v. 40 mg/kg, 15min, individual rat, 40 mg/kg): 49462.2 nM and 51406.1 nM
- Plasma concentration ([1]; i.v. 40 mg/kg, 30min, individual rat, 40 mg/kg): 35638.7 nM and 16847.4 nM and 33046.8 nM
- Plasma concentration ([1]; i.v. 40 mg/kg, 1h, individual rat, 40 mg/kg): 23543.1 nM and 24623.1 nM
- Brain/Plasma [1, 4]: 0.22 and 0.12
- Plasma concentration [1, 4]: 15313.8 nM and 16653 nM and 15983.4 nM and 12333.1 nM and 12074 nM
- concentration at 2 h [1, 4]: 3671.9 nM and 1922.3 nM
- Plasma concentration ([1]; i.v. 40 mg/kg, 4h, individual rat, 40 mg/kg): 4017.5 nM and 4341.4 nM
- Plasma concentration ([1]; i.v. 40 mg/kg, 6h, individual rat, 40 mg/kg): 1823 nM and 1159.9 nM
- Plasma concentration ([1]; i.v. 40 mg/kg, 8h, individual rat, 40 mg/kg): 1546.5 nM and 1265.7 nM
- Brain/Plasma ([1]; i.v. 40 mg/kg, 24h, individual rat, 40 mg/kg): 11.80 and 2.82 and 12.90
